Assays:
human orexin-2 receptor = human orexin-2 receptor (Homo sapiens (Human), UniProt O43614); assay: FLIPR Ca2+ flux assay, orexin-2 receptor; assay type: cell-based; conditions: CHO cells expressing human orexin-2 receptor; agonist 70 pM Ala-6,12 orexin-A; read-out: hOX2R FLIPR IC50
Experimental: The utility of the compounds in accordance with the present invention as orexin receptor OX1R and/or OX2R antagonists may be readily determined without undue experimentation by methodology well known in the art, including the “FLIPR Ca^2+ Flux Assay” (Okumura et al., Biochem. Biophys. Res. Comm. 280:976-981, 2001). In a typical experiment the OX1 and OX2 receptor antagonistic activity of the compounds of the present invention was determined in accordance with the following experimental method. For intracellular calcium measurements, Chinese hamster ovary (CHO) cells expressing the rat orexin-1 receptor or the human orexin-2 receptor, are grown in Iscove's modified DMEM containing 2 mM L-glutamine, […], 1% hypoxanthine-thymidine supplement, 100 U/ml penicillin, 100 μg/ml streptomycin and 10% heat-inactivated fetal calf serum (FCS). The cells are seeded at 20,000 cells/well into Becton-Dickinson black 384-well clear bottom sterile plates coated with poly-D-lysine. All reagents were from GIBCO-Invitrogen Corp. The seeded plates are incubated overnight at 37° C. and 5% CO2. Ala-6,12 human orexin-A as the agonist is prepared as a 1 mM stock solution in 1% bovine serum albumin (BSA) and diluted in assay buffer (HBSS containing 20 mM HEPES, 0.1% BSA and 2.5 mM probenecid, pH7.4) for use in the assay at a final concentration of 70 pM. Test compounds are prepared as 10 mM stock solution in DMSO, then diluted in 384-well plates, first in DMSO, then assay buffer. On the day of the assay, cells are washed 3 times with 100 μl assay buffer and then incubated for 60 min (37° C., 5% CO2) in 60 μl assay buffer containing 1 μM Fluo-4AM ester, 0.02% pluronic acid, and 1% BSA. The dye loading solution is then aspirated and cells are washed 3 times with 100 μl assay buffer. 30 μl of that same buffer is left in each well. Within the Fluorescent Imaging Plate Reader (FLIPR, Molecular Devices), test compounds are added to the plate in a volume of 25 μl, incubated for 5 min and finally 25 μl of agonist is added. Fluorescence is measured for each well at 1 second intervals for 5 minutes and the height of each fluorescence peak is compared to the height of the fluorescence peak induced by 70 pM Ala-6,12 orexin-A with buffer in place of antagonist. For each antagonist, IC50 value (the concentration of compound needed to inhibit 50% of the agonist response) is determined. Alternatively, compound potency can be assessed by a radioligand binding assay (described in Bergman et. al. Bioorg. Med. Chem. Lett. 2008, 18, 1425-1430) in which the inhibition constant (Ki) is determined in membranes prepared from CHO cells expressing either the OX1 or OX2 receptor. The intrinsic orexin receptor antagonist activity of a compound which may be used in the present invention may be determined by these assays.

hOX1R = hOX1R (Homo sapiens, UniProt O43613); assay: FLIPR Ca2+ flux assay, orexin-1 receptor; assay type: cell-based; conditions: CHO cells expressing orexin-1 receptor; agonist 70 pM Ala-6,12 orexin-A

Chain of human orexin-2 receptor (O43614 whole entry): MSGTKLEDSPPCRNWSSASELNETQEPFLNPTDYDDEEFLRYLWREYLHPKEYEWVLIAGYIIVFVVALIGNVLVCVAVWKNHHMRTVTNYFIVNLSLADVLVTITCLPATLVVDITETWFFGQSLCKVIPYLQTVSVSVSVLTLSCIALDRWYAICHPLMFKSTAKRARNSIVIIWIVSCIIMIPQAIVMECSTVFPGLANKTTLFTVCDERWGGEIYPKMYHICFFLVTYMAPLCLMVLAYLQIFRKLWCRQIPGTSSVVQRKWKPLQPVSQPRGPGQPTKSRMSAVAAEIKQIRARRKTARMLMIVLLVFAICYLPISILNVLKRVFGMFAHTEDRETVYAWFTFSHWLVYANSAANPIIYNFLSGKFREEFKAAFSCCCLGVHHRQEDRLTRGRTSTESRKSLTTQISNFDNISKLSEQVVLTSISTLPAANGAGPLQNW

Compound	IC50 (human orexin-2 receptor) [nM]	IC50 (hOX1R) [nM]
COc1ccnc(O[C@@H]2CC[C@@H](C)N(C(=O)c3ccccc3-n3nccn3)C2)c1F [Example 49, 3-Fluoro-4-methoxy-2-{[(3R,6R)-6-methyl-1-{[2-(2H-1,2,3-triazol-2-yl)phenyl]carbonyl}piperidin-3-yl]oxy}pyridine]	71	10000
C[C@@H]1CC[C@@H](Oc2cc(OCC(F)F)ccn2)CN1C(=O)c1ccccc1-n1ncnn1 [Example 29, 4-(2,2-difluoroethoxy)-2-{[(3R,6R)-6-methyl-1-{[2-(2H-tetrazol-2-yl)phenyl]carbonyl}piperidin-3-yl]oxy}pyridine]	29	8070
CC(C)Oc1ccnc(O[C@@H]2CC[C@@H](C)N(C(=O)c3ccccc3-n3ncnn3)C2)c1 [Example 7, 4-(1-methylethoxy)-2-{[(3R,6R)-6-methyl-1-{[2-(2H-tetrazol-2-yl)phenyl]carbonyl}piperidin-3-yl]oxy}pyridine]	23	1200
C[C@@H]1CC[C@@H](Oc2cc(OCC(F)F)ccn2)CN1C(=O)c1c(F)cccc1-n1nccn1 [Example 36, 4-(2,2-difluoroethoxy)-2-{[(3R,6R)-1-{[2-fluoro-6-(2H-1,2,3-triazol-2-yl)phenyl]carbonyl}-6-methylpiperidin-3-yl]oxy}pyridine]	56	2970
C[C@@H]1CC[C@@H](Oc2cc(OC(F)F)ccn2)CN1C(=O)c1ccccc1-n1ncnn1 [Example 57, 4-(difluoromethoxy)-2-{[(3R,6R)-6-methyl-1-{[2-(2H-tetrazol-2-yl)phenyl]carbonyl}piperidin-3-yl]oxy}pyridine]	11	1690
COc1ccnc(O[C@@H]2CC[C@@H](C)N(C(=O)c3ccsc3-n3nccn3)C2)c1 [Example 59, 4-methoxy-2-{[(3R,6R)-6-methyl-1-{[2-(2H-1,2,3-triazol-2-yl)thiophen-3-yl]carbonyl}piperidin-3-yl]oxy}pyridine]	11	–
C[C@@H]1CC[C@@H](Oc2cc(OC(F)F)ccn2)CN1C(=O)c1cscc1-n1nccn1 [Example 55, 4-(difluoromethoxy)-2-{[(3R,6R)-6-methyl-1-{[4-(2H-1,2,3-triazol-2-yl)thiophen-3-yl]carbonyl}piperidin-3-yl]oxy}pyridine]	13	1760
CCOc1ccnc(O[C@@H]2CC[C@@H](C)N(C(=O)c3ccsc3-c3ncccn3)C2)c1 [Example 65, ((2R,5R)-5-(4-Ethoxypyridin-2-yloxy)-2-methylpiperidin-1-yl)(2-(pyrimidin-2-yl)thiophen-3-yl)methanone]	26	899
C[C@@H]1CC[C@@H](Oc2cc(OCC(F)F)ccn2)CN1C(=O)c1ccsc1-n1nccn1 [Example 60, (2-(2H-1,2,3-Triazol-2-yl)thiophen-3-yl)((2R,5R)-5-((4-(2,2-difluoroethoxy)pyridin-2-yl)oxy)-2-methylpiperidin-1-yl)methanone]	22	2020
COc1ccnc(O[C@@H]2CC[C@@H](C)N(C(=O)c3ccc(OC)cc3-n3nccn3)C2)c1 [Example 20, 4-methoxy-2-{[(3R,6R)-1-{[4-methoxy-2-(2H-1,2,3-triazol-2-yl)phenyl]carbonyl}-6-methylpiperidin-3-yl]oxy}pyridine]	114	10000
CC(C)Oc1ccnc(O[C@@H]2CC[C@@H](C)N(C(=O)c3ccsc3-n3nccn3)C2)c1 [Example 61, 4-(1-methylethoxy)-2-{[(3R,6R)-6-methyl-1-{[2-(2H-1,2,3-triazol-2-yl)thiophen-3-yl]carbonyl}piperidin-3-yl]oxy}pyridine]	25	1480
CC(C)Oc1ccnc(O[C@@H]2CC[C@@H](C)N(C(=O)c3ccc(F)cc3-n3nccn3)C2)c1 [Example 23, 2-{[(3R,6R)-1-{[4-fluoro-2-(2H-1,2,3-triazol-2-yl)phenyl]carbonyl}-6-methylpiperidin-3-yl]oxy}-4-(1-methylethoxy) pyridine]	41.2	2140
COc1ccnc(O[C@@H]2CC[C@@H](C)N(C(=O)c3ccccc3-n3nccn3)C2)c1C(C)=O [Example 51, 1-(4-methoxy-2-{[(3R,6R)-6-methyl-1-{[2-(2H-1,2,3-triazol-2-yl)phenyl]carbonyl}piperidin-3-yl]oxy}pyridin-3-yl)ethanone]	12.3	976
C[C@@H]1CC[C@@H](Oc2cc(OC3CC3)ccn2)CN1C(=O)c1ccccc1-n1nccn1 [Example 40, 4-(Cyclopropyloxy)-2-{[(3R,6R)-6-methyl-1-{[2-(2H-1,2,3-triazol-2-yl)phenyl]carbonyl}-piperidin-3-yl]oxy}pyridine]	15.2	581
CC(C)Oc1ccnc(O[C@@H]2CC[C@@H](C)N(C(=O)c3ccccc3-c3ncccn3)C2)c1 [Example 44, 2-(2-{[(2R,5R)-2-Methyl-5-{[4-(1-methylethoxy)pyridin-2-yl]oxy}piperidin-1-yl]carbonyl}phenyl)pyrimidine]	67	1640
COc1ccnc(O[C@@H]2CC[C@@H](C)N(C(=O)c3cccc(F)c3-n3nccn3)C2)c1 [Example 10, 2-{[(3R,6R)-1-{[3-fluoro-2-(2H-1,2,3-triazol-2-yl)phenyl]carbonyl}-6-methylpiperidin-3-yl]oxy}-4-methoxypyridine]	14.7	576
C[C@@H]1CC[C@@H](Oc2cc(OCC(F)F)ccn2)CN1C(=O)c1cccc(F)c1-n1nccn1 [Example 34, 4-(2,2-difluoroethoxy)-2-{[(3R,6R)-1-{[3-fluoro-2-(2H-1,2,3-triazol-2-yl)phenyl]carbonyl}-6-methylpiperidin-3-yl]oxy}pyridine]	42	2140
C[C@@H]1CC[C@@H](Oc2cc(OCC(F)F)ccn2)CN1C(=O)c1ncccc1-c1ncccn1 [Example 47, 2-(2-{[(2R,5R)-5-{[4-(2,2-difluoroethoxy)pyridin-2-yl]oxy}-2-methylpiperidin-1-yl]carbonyl}pyridin-3-yl)pyrimidine]	84	9270
C[C@@H]1CC[C@@H](Oc2cc(OCC(F)F)ccn2)CN1C(=O)c1ccccc1CS(C)(=O)=O [Example 31, 4-(2,2-difluoroethoxy)-2-{[(3R,6R)-6-methyl-1-({2-[(methylsulfonyl)methyl]phenyl}carbonyl)piperidin-3-yl]oxy}pyridine]	34	> 10000
COc1ccnc(O[C@@H]2CC[C@@H](C)N(C(=O)c3ccsc3-c3ncccn3)C2)c1 [Example 58, ((2R,5R)-5-((4-Methoxypyridin-2-yl)oxy)-2-methylpiperidin-1-yl)(2-(pyrimidin-2-yl)thiophen-3-yl)methanone]	21	1110
C[C@@H]1CC[C@@H](Oc2cc(OCC(F)F)ccn2)CN1C(=O)c1ccsc1-c1ncccn1 [Example 64, ((2R,5R)-5-((4-(2,2-Difluoroethoxy)pyridin-2-yl)oxy)-2-methylpiperidin-1-yl)(2-(pyrimidin-2-yl)thiophen-3-yl)methanone]	36	5210
COc1ccnc(O[C@@H]2CC[C@@H](C)N(C(=O)c3ccc(F)cc3-n3nccn3)C2)c1 [Example 19, 2-{[(3R,6R)-1-{[4-fluoro-2-(2H-1,2,3-triazol-2-yl)phenyl]carbonyl}-6-methylpiperidin-3-yl]oxy}-4-methoxypyridine]	22.1	1800
C[C@@H]1CC[C@@H](Oc2cc(OCC(F)F)ccn2)CN1C(=O)c1ccccc1C1(C#N)CC1 [Example 32, 1-(2-{[(2R,5R)-5-{[4-(2,2-difluoroethoxy)pyridin-2-yl]oxy}-2-methylpiperidin-1-yl]carbonyl}phenyl) cyclopropanecarbonitrile]	24	4360
C[C@@H]1CC[C@@H](Oc2cc(OCC(F)F)ccn2)CN1C(=O)c1ccc(F)cc1-n1nccn1 [Example 35, 4-(2,2-difluoroethoxy)-2-{[(3R,6R)-1-{[4-fluoro-2-(2H-1,2,3-triazol-2-yl)phenyl]carbonyl}-6-methylpiperidin-3-yl]oxy}pyridine]	62	3270

— patent US9745284B2, “2-pyridyloxy-4-ether orexin receptor antagonists” (MERCK SHARP & DOHME CORP., priority 2013, dated 2017)
